One assay has as its system AMPA receptor. As to the kind of experiment: AMPA mediated whole cell currents in cultured cortical neurons (patch clamp, glutamate-induced steady-state current). Type of assay: cell-based, Sprague-Dawley rats. The following applies: cultured rat cortical neurons, 500 μM glutamate, voltage-clamped at −80 mV; read-out: EC2x value (concentration at which the glutamate induced current is increased by 100%). How it is done: Synaptic responses mediated by AMPA receptors are increased according to the method of the invention, using the compound described herein. […] The in vitro assay is described as follows. Cortical cells were prepared from day 18-19 embryonic Sprague-Dawley rats and recorded after 3 days in culture. The extracellular solution (ECS) contained (in mM): NaCl (145), KCl (5.4), HEPES (10), MgCl2 (0.8), CaCl2 (1.8), glucose (10), sucrose (30); pH. 7.4. In order to block the voltage-gated sodium currents, 40 nM TTX was added to the recording solution. […]
The whole-cell current was measured with patch-clamp amplifier (Axopatch 200B), filtered at 2 kHz, digitized at 5 kHz and recorded on a PC with pClamp 8. […] A baseline response for each cell was recorded using a 1 s pulse of 500 μM glutamate dissolved in ECS. Responses to test compound were then determined by application of a 10 s pulse of test compound followed by a 1 s pulse of the same concentration of test compound plus 500 μM glutamate and then 10 s of saline. This pulse sequence was repeated until a stable reading was obtained, or until sufficient data points were measured to allow extrapolation to a calculated maximum change.
The mean value of plateau current between 600 ms to 900 ms after application of glutamate or test compound plus glutamate was calculated and used as the parameter to measure the drug effect. […]

In assay [1] the test system is field EPSP (perforant path / dentate gyrus of the hippocampus). The assay is described as follows: In vivo physiological testing: field EPSP in dentate gyrus of hippocampus of anesthetized animals. The conditions noted are these: dose of 5 mg/kg, iv administration. Here is the method: The physiological effects of the invention compound were tested in vivo in anesthetized animals according to the following procedures.
Animals are maintained under anesthesia by phenobarbital administered using a Hamilton syringe pump. Stimulating and recording electrodes are inserted into the perforant path and dentate gyrus of the hippocampus, respectively. Once electrodes are implanted, a stable baseline of evoked responses are elicited using single monophasic pulses (100 μs pulse duration) delivered at 3/min to the stimulating electrode. Field EPSPs are monitored until a stable baseline is achieved (about 20-30 min), after which a solution of test compound in HPCD is injected intraperitoneally and evoked field potentials are recorded. Evoked potentials are recorded for approximately 2 h following drug administration or until the amplitude of the field EPSP returns to baseline. In the latter instance, it is common that an iv administration is also carried out with an appropriate dose of the same test compound.

Molecules are shown by their SMILES.

Consider `O=C1c2cc3nnn(CCc4cccc(F)c4)c(=O)c3cc2OCN1C1CC1` [8-Cyclopropyl-3-[2-(3-fluorophenyl)ethyl]-7,8-dihydro-3H-[1,3]oxazino[6,5-g][1,2,3]-benzotriazine-4,9-dione], for which the EC2x (concentration that doubles the glutamate-induced current) with AMPA receptor worked out at 100 nM. In addition, in assay [1], the “increase in the amplitude of the field EPSP” value amounted to 10%.
